In ChEMBL document CHEMBL1201862, “PubChem BioAssay data set” (2004) one finds IC50, AC50 and EC50 data, which are given here for four molecules.

The target in one experiment is Steroidogenic factor 1 (Homo sapiens, UniProt Q13285). The experiment is described as follows: Counterscreen for inverse agonists of the liver receptor homolog-1 (LRH-1; NR5A2): Luminescence-based cell-based high throughput dose response assay to identify inverse agonists of the Steroidogenic Factor 1 Nuclear Receptor (SF1; NR5A1). The experiment is classed as functional.
Sequence of Steroidogenic factor 1 (Q13285 whole entry): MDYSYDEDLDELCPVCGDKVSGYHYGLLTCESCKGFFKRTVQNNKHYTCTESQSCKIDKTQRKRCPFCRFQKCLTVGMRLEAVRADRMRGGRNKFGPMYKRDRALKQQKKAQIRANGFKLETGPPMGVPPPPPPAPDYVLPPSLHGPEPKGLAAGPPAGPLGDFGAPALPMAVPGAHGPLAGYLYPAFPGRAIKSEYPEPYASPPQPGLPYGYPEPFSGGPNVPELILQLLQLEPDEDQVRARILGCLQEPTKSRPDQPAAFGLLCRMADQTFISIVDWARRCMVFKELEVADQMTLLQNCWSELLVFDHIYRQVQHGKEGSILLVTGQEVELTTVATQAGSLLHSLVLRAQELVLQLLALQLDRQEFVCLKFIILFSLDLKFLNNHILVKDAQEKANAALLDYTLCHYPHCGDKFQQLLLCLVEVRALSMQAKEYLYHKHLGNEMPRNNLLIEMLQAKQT

Experiment [1] in a line: nonselective StAR promoter luciferase inhibitors – cell-based, luminescence, luciferase reporter, counter-screen for LRH-1 inverse agonist project, dose response (AID 651969). The experiment is classed as functional.
The target of experiment [2] is Nuclear receptor subfamily 5 group A member 2 (Homo sapiens, UniProt O00482). The class given is functional, cell-based.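 Note: HEK293T cells transfected with LRH-1 and a StAR promoter luciferase reporter; potency for inhibitors that lower LRH-1 driven reporter light.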
Sequence of Nuclear receptor subfamily 5 group A member 2 (O00482 whole entry): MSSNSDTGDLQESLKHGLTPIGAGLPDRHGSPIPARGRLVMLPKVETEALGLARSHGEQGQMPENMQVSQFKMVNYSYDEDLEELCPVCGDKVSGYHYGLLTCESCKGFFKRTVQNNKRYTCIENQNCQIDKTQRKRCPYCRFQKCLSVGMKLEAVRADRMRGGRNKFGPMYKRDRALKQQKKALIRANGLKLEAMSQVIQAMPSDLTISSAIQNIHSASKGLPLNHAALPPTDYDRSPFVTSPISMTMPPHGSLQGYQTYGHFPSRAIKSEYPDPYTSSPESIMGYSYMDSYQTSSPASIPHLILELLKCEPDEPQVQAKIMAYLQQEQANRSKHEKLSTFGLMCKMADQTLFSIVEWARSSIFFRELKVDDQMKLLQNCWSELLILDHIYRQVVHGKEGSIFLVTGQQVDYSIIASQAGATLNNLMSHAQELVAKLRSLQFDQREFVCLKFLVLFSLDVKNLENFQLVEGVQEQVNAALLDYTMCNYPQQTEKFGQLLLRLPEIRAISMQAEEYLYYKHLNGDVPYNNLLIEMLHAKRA
Experiment [3] in a line: intracellular Trypanosoma cruzi inhibitors in host cells – cell-based, plate reader, cherry-pick samples, set 3, dose response (AID 651818).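 Note: compounds incubated with infected cells for about four days.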 The experiment is classed as functional.
Experiment [4] can be described thus: mouse fibroblast viability loss – cell-based, cherry-pick samples, set 2, cytotoxicity control for T. cruzi growth inhibitor project, dose response (AID 651817). The class given is functional. Conditions: NIH3T3.
The target of experiment [5] is Arf-GAP with SH3 domain, ANK repeat and PH domain-containing protein 1 (Homo sapiens, UniProt Q9ULH1). The experiment is classed as functional.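 Note: biochemical fluorescence polarization dose–response screen measuring inhibition of ASAP1; ASAP1 GAP domain stimulating GTP hydrolysis by truncated human ARF1.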
Sequence of Arf-GAP with SH3 domain, ANK repeat and PH domain-containing protein 1 (Q9ULH1 whole entry, the tested form may be a part): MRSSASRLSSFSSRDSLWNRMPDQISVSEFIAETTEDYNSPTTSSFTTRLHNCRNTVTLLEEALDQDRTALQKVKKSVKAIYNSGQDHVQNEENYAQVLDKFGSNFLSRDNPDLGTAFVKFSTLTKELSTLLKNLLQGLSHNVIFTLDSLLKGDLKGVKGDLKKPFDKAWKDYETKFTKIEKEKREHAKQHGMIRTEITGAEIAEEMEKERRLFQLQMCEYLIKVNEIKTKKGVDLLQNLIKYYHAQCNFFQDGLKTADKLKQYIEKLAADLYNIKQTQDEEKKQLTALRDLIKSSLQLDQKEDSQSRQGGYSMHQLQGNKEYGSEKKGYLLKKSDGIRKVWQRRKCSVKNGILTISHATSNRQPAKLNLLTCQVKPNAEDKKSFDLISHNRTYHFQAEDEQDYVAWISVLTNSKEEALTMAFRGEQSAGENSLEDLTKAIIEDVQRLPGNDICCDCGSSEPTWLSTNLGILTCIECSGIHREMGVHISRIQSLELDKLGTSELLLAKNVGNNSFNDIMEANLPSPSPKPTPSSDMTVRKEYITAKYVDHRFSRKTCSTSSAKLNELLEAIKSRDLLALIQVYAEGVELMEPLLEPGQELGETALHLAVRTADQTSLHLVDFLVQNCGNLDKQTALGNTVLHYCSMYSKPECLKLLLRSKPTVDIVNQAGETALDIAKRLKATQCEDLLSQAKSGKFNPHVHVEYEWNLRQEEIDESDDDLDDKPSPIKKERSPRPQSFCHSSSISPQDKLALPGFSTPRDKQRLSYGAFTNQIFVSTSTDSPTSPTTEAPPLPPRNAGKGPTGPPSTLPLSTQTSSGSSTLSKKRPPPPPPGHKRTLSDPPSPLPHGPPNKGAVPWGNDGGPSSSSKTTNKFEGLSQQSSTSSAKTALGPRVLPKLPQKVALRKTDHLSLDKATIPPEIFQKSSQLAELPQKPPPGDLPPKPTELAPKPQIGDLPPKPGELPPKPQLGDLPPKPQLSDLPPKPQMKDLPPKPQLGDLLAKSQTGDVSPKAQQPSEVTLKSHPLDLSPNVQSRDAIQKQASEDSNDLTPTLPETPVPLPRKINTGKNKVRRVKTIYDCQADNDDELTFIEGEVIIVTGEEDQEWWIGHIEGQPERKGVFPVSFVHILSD
The target of experiment [6] is ADP-ribosylation factor GTPase-activating protein 1 (Rattus norvegicus, UniProt Q62848). The experiment is described as follows: Fluorescence polarization-based biochemical high throughput dose response screening assay to identify inhibitors of ADP-ribosylation factor GTPase activating protein 1 (ARFGAP1). The experiment is classed as functional.
Sequence of ADP-ribosylation factor GTPase-activating protein 1 (Q62848 whole entry): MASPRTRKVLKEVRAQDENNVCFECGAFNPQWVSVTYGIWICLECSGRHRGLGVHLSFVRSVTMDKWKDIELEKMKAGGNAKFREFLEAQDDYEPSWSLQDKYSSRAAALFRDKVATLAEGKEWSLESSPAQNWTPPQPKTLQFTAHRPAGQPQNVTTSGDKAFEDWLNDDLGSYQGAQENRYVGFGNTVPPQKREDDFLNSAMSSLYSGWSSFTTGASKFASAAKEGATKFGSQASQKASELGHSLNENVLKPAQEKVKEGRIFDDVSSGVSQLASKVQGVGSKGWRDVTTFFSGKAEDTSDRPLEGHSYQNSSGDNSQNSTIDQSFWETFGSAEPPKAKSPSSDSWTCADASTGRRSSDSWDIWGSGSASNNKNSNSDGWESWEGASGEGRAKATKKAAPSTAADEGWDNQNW
Experiment [7] in a line: viability loss of HPDE-C7K cells – cell-based, fluorescence, HTS, primary screen (AID 431). The experiment is classed as functional. The conditions noted are these: Homo sapiens.
For experiment [8], the target named is T1, Low molecular weight phosphotyrosine protein phosphatase (Homo sapiens, UniProt P24666).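 Note: Dose-response confirmation assay measuring inhibition of LMPTP enzyme activity by fluorescence intensity read-out.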
T1 sequence (P24666 whole entry): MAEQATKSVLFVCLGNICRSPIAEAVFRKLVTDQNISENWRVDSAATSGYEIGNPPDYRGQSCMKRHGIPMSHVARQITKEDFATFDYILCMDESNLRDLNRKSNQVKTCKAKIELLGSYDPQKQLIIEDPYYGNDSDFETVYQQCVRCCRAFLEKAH
The class given is functional. The conditions noted are these: read-out: IC50_Mean.

Experiment [9] has as its target T2, Tyrosine-protein phosphatase non-receptor type 22 (Homo sapiens, UniProt Q9Y2R2).
T2 sequence (Q9Y2R2 whole entry): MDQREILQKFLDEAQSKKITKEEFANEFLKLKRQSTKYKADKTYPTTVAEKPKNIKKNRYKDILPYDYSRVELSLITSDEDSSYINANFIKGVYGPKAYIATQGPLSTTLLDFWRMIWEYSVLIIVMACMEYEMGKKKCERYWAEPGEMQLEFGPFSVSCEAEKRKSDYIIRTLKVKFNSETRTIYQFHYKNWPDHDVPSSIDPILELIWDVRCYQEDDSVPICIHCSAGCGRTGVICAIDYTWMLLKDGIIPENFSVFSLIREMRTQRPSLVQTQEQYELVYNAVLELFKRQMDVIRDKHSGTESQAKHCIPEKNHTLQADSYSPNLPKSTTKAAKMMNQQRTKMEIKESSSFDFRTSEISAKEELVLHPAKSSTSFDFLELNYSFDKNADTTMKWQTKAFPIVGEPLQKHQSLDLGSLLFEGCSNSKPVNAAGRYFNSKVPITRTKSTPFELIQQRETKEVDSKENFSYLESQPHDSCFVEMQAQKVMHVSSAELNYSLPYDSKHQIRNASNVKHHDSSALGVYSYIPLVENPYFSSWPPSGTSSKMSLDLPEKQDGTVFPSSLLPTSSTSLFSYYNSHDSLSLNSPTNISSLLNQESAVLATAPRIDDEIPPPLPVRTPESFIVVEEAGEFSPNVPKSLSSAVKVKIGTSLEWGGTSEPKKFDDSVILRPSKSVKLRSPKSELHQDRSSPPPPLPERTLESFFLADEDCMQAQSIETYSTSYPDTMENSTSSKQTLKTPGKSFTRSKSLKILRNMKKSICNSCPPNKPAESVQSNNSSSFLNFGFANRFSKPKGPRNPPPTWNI
The experiment is described as follows: PTPN22 enzyme inhibitors – biochemical, fluorescence, LYP catalytic domain, selectivity assay for LMPTP inhibitor project, dose response (AID 652006). The experiment is classed as functional. Conditions: read-out: IC50_Mean.

Experiment [10] can be described thus: viability of HCT116 lacking mutant beta-catenin – cell-based, human colon tumor, dose response (AID 1045).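 Note: HCT116 colon tumor cells with beta catenin knocked out; cells exposed to compound for 60 hours.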 The class given is functional.
Experiment [11] is described as follows: viability of PTEN-deleted HCT116 cells – cell-based, HCT116 PTEN knockout, dose response (AID 1047).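 Note: HCT116 colon tumor cells with PTEN knocked out; cells exposed to compound for 60 hours before readout; potency for loss of cell viability measured by luminescence.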 The experiment is classed as functional.
The nature of experiment [12]: HPDE-C7 pancreatic duct cell viability loss – fluorescence, HTS (AID 430). The conditions noted are these: Homo sapiens. The experiment is classed as functional, cell-based.

The source made the active and inactive calls.

`CCOc1ccc(NC(=O)COC(=O)c2ccc3c(c2)OCCO3)cc1`: the IC50 on Steroidogenic factor 1 was 1.01 µM (active); in experiment [1], 35.9 µM (inactive); in [2], 12.9 µM (inactive).
As a reminder, the AC50 is the concentration giving half of the maximal activity seen. Turning to `COc1ccc(CN(C)C[C@@H]2Oc3c(NC(=O)Nc4ccc(C(F)(F)F)cc4)cccc3C(=O)N([C@H](C)CO)C[C@H]2C)cc1`, the AC50 in [3] is 1.8 µM (active); in [4], 11.3 µM (active).
`COC(=O)Cn1cc(/C=N/NC(=O)COc2cccc3cccnc23)c2ccccc21`: the IC50 in [5] was 116 µM (inactive); in [6], 119 µM (inactive).
As a reminder, the EC50 is the concentration giving half of the maximal effect. Take `CC(=O)Nc1ccc(S(=O)(=O)N2CCN(c3nc(NC4CCCC4)c4ccccc4n3)CC2)cc1`: the concentration giving a half-maximal response (EC50) in experiment [7] was 13.2 µM (active); in experiment [10] it was 12.7 µM (active); in [11], 13.7 µM (active); in experiment [12] it was 12.4 µM (active). Besides, the values for the IC50 in experiment [8] and in experiment [9] were 20.7 µM (inactive) and 28.2 µM (inactive), respectively.
